{
  "source": "paper PMC7291858",
  "about": "“An Enhanced Variant Designed From DLP4 Cationic Peptide Against Staphylococcus aureus CVCC 546” (Frontiers in Microbiology, 2020)",
  "key": {"S. aureus CVCC 546": {"test_system": "S. aureus CVCC 546", "assay": "Potassium ion (K+) leakage", "type": "cell-based, Staphylococcus aureus", "settings": "1 × MIC, treated for 150 min, 0.9% saline, 10^8 CFU/mL, ICP, n = 3", "protocol": "To further investigate the effects of peptides on membrane integrity, K^+ leakage determination was carried out as previously described ([Miao et al., 2016]). Briefly, S. aureus CVCC 546 cells were centrifuged, washed, and resuspended in 0.9% sterile saline. The cell suspension (10^8 CFU/mL) was treated with peptides at 1 × MIC. Cells untreated and treated with DLP4 or nisin were used as blank and positive controls. At time intervals of 30, 60, 90, 120, and 150 min, the suspensions were centrifuged at 12000 rpm for 5 min. The supernatants were then subjected to measurement by Agilent inductively coupled plasma optical emission (ICP-OES)."}, "S. aureus ATCC 43300": {"test_system": "S. aureus ATCC 43300", "type": "cell-based, Staphylococcus aureus", "settings": "microtiter, serial 2-fold dilutions, 37°C, 16∼20 h, triplicate; – = no activity", "protocol": "(§1) The minimal inhibitory concentration (MIC) was evaluated by a microtiter plate assay ([Wiegand et al., 2008]). Serial 2-fold dilutions of test peptides were placed into a 96-well plate containing identical bacterial inoculum and incubated at 37°C for 16∼20 h. Vancomycin was used as antibiotic control. The MIC value was defined as the lowest peptide concentration where no visible growth occurred. All tests were made in triplicate."}, "[1]": {"test_system": "Staphylococcus aureus CVCC 546", "assay": "microbe, parasite or virus in culture", "type": "cell-based", "settings": "Table 1; – = no activity", "protocol": "as §1"}},
  "note": "Ends that are not written are not given here. Peptide text beside a SMILES is read from it.",
  "data": [
    {"molecule": "nisin (ITSISLCTPGCKTGALMGCNMKTATCHCSIHVSK; also: lantibiotic: thioether rings and dehydro residues not placed; UniProt P13068 24-57, looked up) [positive control in K+ leakage assay]", "values": [
      {"measurement": "level of released K+", "setting": "S. aureus CVCC 546", "result": 1.03, "unit": "mg/L"}
    ]},
    {"molecule": "CC[C@H](C)[C@@H]1NC(=O)[C@@H]2CSSC[C@@H](C(=O)N[C@@H](CCCNC(=N)N)C(=O)N[C@@H](CCCCN)C(=O)O)NC(=O)[C@H](CC(N)=O)NC(=O)[C@@H]3CSSC[C@H](NC(=O)[C@H](C)NC(=O)[C@H](C)NC(=O)[C@H](Cc4c[nH]cn4)NC(=O)CNC(=O)[C@H](C(C)C)NC(=O)[C@H](CCCCN)NC(=O)[C@H](Cc4ccccc4)NC(=O)[C@@H]4CCCN4C(=O)[C@H](CO)NC(=O)[C@H](CC(C)C)NC(=O)[C@H](CC(C)C)NC(=O)[C@H](CC(=O)O)NC(=O)[C@@H](NC(=O)[C@@H](NC(=O)[C@H](C)N)[C@@H](C)O)CSSC[C@H](NC(=O)[C@H](Cc4c[nH]c5ccccc45)NC(=O)CNC(=O)CNC(=O)[C@H](CCCNC(=N)N)NC(=O)[C@H](CCCCN)NC(=O)CNC(=O)[C@H](CCCNC(=N)N)NC(=O)[C@H](C)NC1=O)C(=O)N[C@@H](CC(=O)O)C(=O)N[C@@H](CCCCN)C(=O)N[C@@H](CCCNC(=N)N)C(=O)N[C@@H](C)C(=O)N[C@@H](C(C)C)C(=O)N3)C(=O)N[C@@H](C)C(=O)N[C@@H](C(C)C)C(=O)N[C@@H](Cc1c[nH]cn1)C(=O)N2", "note": "[ID28] (HELM PEPTIDE1{A.T.C.D.L.L.S.P.F.K.V.G.H.A.A.C.A.V.H.C.I.A.R.G.K.R.G.G.W.C.D.K.R.A.V.C.N.C.R.K}$PEPTIDE1,PEPTIDE1,3:R3-30:R3|PEPTIDE1,PEPTIDE1,16:R3-36:R3|PEPTIDE1,PEPTIDE1,20:R3-38:R3$$$V2.0; N-terminus and C-terminus assumed; bridges inferred)", "values": [
      {"measurement": "A1 (MIC against S. aureus ATCC 43300)", "setting": "S. aureus ATCC 43300", "result": 8, "unit": "µg/mL"},
      {"measurement": "MIC", "setting": "[1]", "result": 16}
    ]},
    {"molecule": "CC[C@H](C)[C@@H]1NC(=O)[C@H](C)NC(=O)[C@H](CCCNC(=N)N)NC(=O)[C@H](CCCCN)NC(=O)[C@H](CC(=O)O)NC(=O)[C@@H]2CSSC[C@H](NC(=O)[C@@H](NC(=O)[C@H](C)N)[C@@H](C)O)C(=O)N[C@@H](CC(=O)O)C(=O)N[C@@H](CC(C)C)C(=O)N[C@@H](CC(C)C)C(=O)N[C@@H](CO)C(=O)N3CCC[C@H]3C(=O)N[C@@H](Cc3ccccc3)C(=O)N[C@@H](CCCCN)C(=O)N[C@@H](C(C)C)C(=O)NCC(=O)N[C@@H](Cc3c[nH]cn3)C(=O)N[C@@H](C)C(=O)N[C@@H](C)C(=O)N[C@H]3CSSC[C@H](NC1=O)C(=O)N[C@@H](CC(N)=O)C(=O)N[C@H](C(=O)N[C@@H](CCCNC(=N)N)C(=O)N[C@@H](CCCCN)C(=O)O)CSSC[C@H](NC(=O)[C@H](Cc1c[nH]cn1)NC(=O)[C@H](C)NC(=O)[C@H](C)NC3=O)C(=O)N[C@@H]([C@@H](C)CC)C(=O)N[C@@H](C)C(=O)N[C@@H](CCCNC(=N)N)C(=O)NCC(=O)N[C@@H](CCCCN)C(=O)N[C@@H](CCCNC(=N)N)C(=O)NCC(=O)NCC(=O)N[C@@H](Cc1c[nH]c3ccccc13)C(=O)N2", "note": "[ID30] (HELM PEPTIDE1{A.T.C.D.L.L.S.P.F.K.V.G.H.A.A.C.A.A.H.C.I.A.R.G.K.R.G.G.W.C.D.K.R.A.I.C.N.C.R.K}$PEPTIDE1,PEPTIDE1,3:R3-30:R3|PEPTIDE1,PEPTIDE1,16:R3-36:R3|PEPTIDE1,PEPTIDE1,20:R3-38:R3$$$V2.0; N-terminus and C-terminus assumed; bridges inferred)", "values": [
      {"measurement": "A1 (MIC against S. aureus ATCC 43300)", "setting": "S. aureus ATCC 43300", "result": 16, "unit": "µg/mL"},
      {"measurement": "MIC", "setting": "[1]", "result": 32}
    ]},
    {"molecule": "CC[C@H](C)[C@@H]1NC(=O)[C@@H]2CSSC[C@@H](C(=O)N[C@@H](CCCNC(=N)N)C(=O)N[C@@H](CCCCN)C(=O)O)NC(=O)[C@H](CC(N)=O)NC(=O)[C@@H]3CSSC[C@H](NC(=O)[C@H](C)NC(=O)[C@H](C)NC(=O)[C@H](Cc4c[nH]cn4)NC(=O)CNC(=O)[C@H](C(C)C)NC(=O)CNC(=O)[C@H](Cc4ccccc4)NC(=O)[C@@H]4CCCN4C(=O)[C@H](CO)NC(=O)[C@H](CC(C)C)NC(=O)[C@H](CC(C)C)NC(=O)[C@H](CC(=O)O)NC(=O)[C@@H](NC(=O)[C@@H](NC(=O)[C@H](C)N)[C@@H](C)O)CSSC[C@H](NC(=O)[C@H](Cc4c[nH]c5ccccc45)NC(=O)CNC(=O)CNC(=O)[C@H](CCCNC(=N)N)NC(=O)[C@H](CCCCN)NC(=O)CNC(=O)[C@H](CCCNC(=N)N)NC(=O)[C@H](C)NC1=O)C(=O)N[C@@H](CC(=O)O)C(=O)NCC(=O)N[C@@H](CCCNC(=N)N)C(=O)N[C@@H](C)C(=O)N[C@@H](C(C)C)C(=O)N3)C(=O)N[C@@H](C)C(=O)N[C@@H](C)C(=O)N[C@@H](Cc1c[nH]cn1)C(=O)N2", "note": "[ID16] (HELM PEPTIDE1{A.T.C.D.L.L.S.P.F.G.V.G.H.A.A.C.A.A.H.C.I.A.R.G.K.R.G.G.W.C.D.G.R.A.V.C.N.C.R.K}$PEPTIDE1,PEPTIDE1,3:R3-30:R3|PEPTIDE1,PEPTIDE1,16:R3-36:R3|PEPTIDE1,PEPTIDE1,20:R3-38:R3$$$V2.0; N-terminus and C-terminus assumed; bridges inferred)", "values": [
      {"measurement": "A1 (MIC against S. aureus ATCC 43300)", "setting": "S. aureus ATCC 43300", "result": 8, "unit": "µg/mL"},
      {"measurement": "MIC", "setting": "[1]", "result": 16}
    ]}
  ]
}
